Measurements from patent publication US10654834B2 (Venenum Biodesign, LLC, priority 2016, dated 2020).
pEC50: −log10 of the molar value.

Tests used:
human TGR5 receptor = target: T1, human TGR5 receptor (Homo sapiens, UniProt Q8TDU6); assay: Human TGR5 cAMP production assay (hTGR5-CHO cells, DiscoveRx cAMP XS+ kit); type: cell-based; settings: luminescent cAMP assay, read-out: Human TGR5 Lum. cAMP Activity (EC50)
T1 construct: host or cells: CHO-K1 (hTGR5-CHO)
T1 sequence (Q8TDU6 1-330): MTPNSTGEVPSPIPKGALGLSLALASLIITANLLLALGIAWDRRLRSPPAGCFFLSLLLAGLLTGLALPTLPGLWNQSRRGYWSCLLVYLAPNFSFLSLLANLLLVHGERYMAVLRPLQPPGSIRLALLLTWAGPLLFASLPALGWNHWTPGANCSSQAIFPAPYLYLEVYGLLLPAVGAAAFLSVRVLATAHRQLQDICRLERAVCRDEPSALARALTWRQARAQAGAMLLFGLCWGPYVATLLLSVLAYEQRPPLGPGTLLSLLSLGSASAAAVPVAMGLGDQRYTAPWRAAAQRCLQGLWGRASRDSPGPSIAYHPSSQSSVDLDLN
Method in brief: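 CHO-K1 cells stably expressing hTGR5, in PBS with IBMX and cAMP antibody, treated with half-log compound dilutions for 1 h at room temperature. cAMP measured by enzyme-fragment complementation luminescence after overnight detection; EC50 values reported.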

mouse TGR5 receptor = target: T2, mouse TGR5 receptor (Mus musculus, UniProt Q80SS6); assay: Mouse TGR5 HTRF cAMP production assay (HEK293-EBNA cells, Cisbio cAMP HiRange kit); type: cell-based; settings: HEK293-EBNA cells overexpressing mouse TGR5, HTRF cAMP assay
T2 construct: host or cells: HEK293-EBNA (293 c18, ATCC CRL10852)
T2 sequence (Q80SS6 1-329): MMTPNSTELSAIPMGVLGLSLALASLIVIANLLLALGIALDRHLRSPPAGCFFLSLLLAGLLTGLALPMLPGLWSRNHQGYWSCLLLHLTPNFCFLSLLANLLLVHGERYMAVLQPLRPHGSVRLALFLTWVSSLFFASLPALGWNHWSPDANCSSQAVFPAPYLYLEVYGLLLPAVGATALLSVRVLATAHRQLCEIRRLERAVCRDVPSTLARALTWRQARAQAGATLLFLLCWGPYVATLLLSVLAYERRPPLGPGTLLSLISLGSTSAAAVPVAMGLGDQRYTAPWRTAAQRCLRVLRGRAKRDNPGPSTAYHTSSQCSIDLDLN
Method in brief: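 HEK293-EBNA cells stably expressing mouse TGR5 (episomal vector) were suspended in serum-free DMEM with 500 μM IBMX and exposed to 12-point half-log compound dilutions for 1 h at room temperature. cAMP was detected by HTRF (d2-cAMP/anti-cAMP cryptate, 1 h, room temperature), giving EC50 from duplicates.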

[1] = Pharmacokinetic profile in mice after oral gavage; type: in vivo, mouse; settings: mouse; fasted male Hilltop mice, 10 mg/kg oral gavage, plasma; read-out: Cmax
Method: Pharmacokinetic Profile in Mice
In this series of studies, the pharmacokinetic profile characteristics of compounds of the present invention were evaluated. The plasma concentration levels of the compounds were monitored in the blood stream (i.e., plasma) after oral gavage using Cmax, and area under the curve (AUC).
8 week old male Hilltop mice were fasted overnight. Animals were randomized into groups (n=9) by body weight. Mice were dosed with 10 mg/kg compound (in 20% PEG400/80% 0.5% carboxymethylcellulose (medium viscosity)+0.25% Tween-80) at a volume of […] through oral gavage. Blood was collected via orbital bleeding at 0, 0.25, 0.5, 1, 2, and 4 h post-dose, with no one mouse having more than 3 blood draws. Blood was collected in EDTA coated tubes. Samples were stored at −20° C. until analysis.
Quantitation of compound levels in plasma was accomplished by LC-MS/MS analysis. Standard curve and quality control samples were prepared in male CD-1 mouse plasma containing EDTA K^2+ as an anticoagulant at final concentrations ranging from 500 to 0.1 ng/mL. The plasma samples, calibration curve standards, and quality control samples were prepared in an identical method in a 96-well deep plate (1 mL) with a quenching solution (1:1 mixed acetonitrile:methanol containing the internal standard Reserpine @ 400 ng/mL). Low volume samples were supplemented with CD-1 mouse plasma. The plate was mixed on multi-tube vortexer for 1 min and centrifuged at 4000 rpm for 30 min at 4° C. (Sorvall® Super T21) before LC-MS/MS analysis. LC conditions were developed and optimized based on each compound as needed. The outlet of the column was coupled to AB Sciex 4000 QTrap Mass Spectrometer (AB Sciex, Brugg Switzerland). Detection was carried out using multiple reaction monitoring mode with positive-ion detection focusing. The pharmacokinetic parameters were derived from the plasma-time data and calculated using the standard non-compartmental method with WinNonlin (Pharsight, Mountain View, Calif.) or PK Solver (Comp. Meth. Prog. Biomed. (2010), 99, 306-314).
Values reported are the mean plasma concentration of three mice. […]

Compound | pEC50 (human TGR5 receptor) | pEC50 (mouse TGR5 receptor) | Cmax [1] [ng/mL]
N=C(N)NCCC[C@H](NC(=O)CCC1CCN(c2cc(N3CC[C@H]3C(=O)NCCc3ccc(C(F)(F)F)cc3)nc(C(F)(F)F)n2)CC1)C(=O)O [Compound 258, (S)-5-guanidino-2-(3-(1-(2-(trifluoromethyl)-6-((S)-2-((4-(trifluoromethyl)phenethyl)carbamoyl)azetidin-1-yl)pyrimidin-4-yl)piperidin-4-yl)propanamido)pentanoic acid] | > 7.00 | > 7.00 | 42
N#Cc1ccc(CCNC(=O)[C@@H]2CCCN2c2cc(N3CCC(COCC(=O)NCCS(=O)(=O)O)CC3)nc(C(F)(F)F)n2)cc1 [Compound 89, (S)-2-(2-((1-(6-(2-((4-cyanophenethyl)carbamoyl)pyrrolidin-1-yl)-2-(trifluoromethyl)pyrimidin-4-yl)piperidin-4-yl)methoxy)acetamido)-ethanesulfonic acid] | > 7.00 | > 7.00 | 2.1
C[N+](C)(C)CCC[C@H](NC(=O)CCCC1CCN(c2cc(N3CCC[C@H]3C(=O)NCCc3ccc(C#N)cc3)nc(C(F)(F)F)n2)CC1)C(=O)O [Compound 105, (S)-4-carboxy-4-(4-(1-(6-((S)-2-((4-cyanophenethyl)carbamoyl)pyrrolidin-1-yl)-2-(trifluoromethyl)pyrimidin-4-yl)piperidin-4-yl)butanamido)-N,N,N-trimethylbutan-1-aminium] | > 7.00 | > 7.00 | 51
N#Cc1ccc(CCNC(=O)[C@@H]2CCCN2c2cc(N3CCC(CCCC(=O)N[C@H](CC(=O)O)C(=O)O)CC3)nc(C(F)(F)F)n2)cc1 [Compound 75, (R)-2-(4-(1-(6-((S)-2-((4-cyanophenethyl)carbamoyl)pyrrolidin-1-yl)-2-(trifluoromethyl)pyrimidin-4-yl)piperidin-4-yl)butanamido)succinic acid] | > 7.00 | > 7.00 | 22
N#Cc1ccc(CCNC(=O)[C@@H]2CCCN2c2cc(N3CCC(CCCC(=O)NCCNc4ncc(C(=O)O)cn4)CC3)nc(C(F)(F)F)n2)cc1 [Compound 98, (S)-2-((2-(4-(1-(6-(2-((4-cyanophenethyl)carbamoyl)pyrrolidin-1-yl)-2-(trifluoromethyl)pyrimidin-4-yl)piperidin-4-yl)butanamido)ethyl)-amino)pyrimidine-5-carboxylic acid] | > 7.00 | > 7.00 | 12
N#Cc1ccc(CCNC(=O)[C@@H]2CCCN2c2cc(N3CCC(CCNC(=O)NCS(=O)(=O)O)CC3)nc(C(F)(F)F)n2)cc1 [Compound 79, (S)-(3-(2-(1-(6-(2-((4-cyanophenethyl)carbamoyl)pyrrolidin-1-yl)-2-(trifluoromethyl)pyrimidin-4-yl)piperidin-4-yl)ethyl)ureido)methanesulfonic acid] | > 7.00 | > 7.00 | 15
N#Cc1ccc(CCNC(=O)[C@@H]2CCN2c2cc(N3CCC(CCNc4c(NCCC(=O)O)c(=O)c4=O)CC3)nc(C(F)(F)F)n2)cc1 [Compound 301, (S)-3-((2-((2-(1-(6-(2-((4-cyanophenethyl)carbamoyl)azetidin-1-yl)-2-(trifluoromethyl)pyrimidin-4-yl)piperidin-4-yl)ethyl)amino)-3,4-dioxocyclobut-1-en-1-yl)amino)propanoic acid] | > 7.00 | > 7.00 | 2.6
O=C(CCCC1CCN(c2cc(N3CCC[C@H]3C(=O)NCCc3cccc(Cl)c3Cl)nc(C(F)(F)F)n2)CC1)NCS(=O)(=O)O [Compound 138, (S)-(4-(1-(6-(2-((2,3-dichlorophenethyl)carbamoyl)pyrrolidin-1-yl)-2-(trifluoromethyl)pyrimidin-4-yl)piperidin-4-yl)butanamido)-methanesulfonic acid] | > 7.00 | > 7.00 | 69
O=C(CCCC1CCN(c2cc(N3CCC[C@H]3C(=O)NCCc3ccc(Cl)c(Cl)c3)nc(C(F)(F)F)n2)CC1)NCS(=O)(=O)O [Compound 136, (S)-(4-(1-(6-(2-((3,4-dichlorophenethyl)carbamoyl)pyrrolidin-1-yl)-2-(trifluoromethyl)pyrimidin-4-yl)piperidin-4-yl)butanamido)methanesulfonic acid] | > 7.00 | > 7.00 | 59
O=C(O)CN1CCC(CCCC2CCN(c3cc(N4CC[C@H]4C(=O)NCCc4ccc(C(F)(F)F)cc4)nc(C(F)(F)F)n3)CC2)CC1 [Compound 281, (S)-2-(4-(3-(1-(2-(trifluoromethyl)-6-(2-((4-(trifluoromethyl)phenethyl)carbamoyl)-azetidin-1-yl)pyrimidin-4-yl)piperidin-4-yl)propyl)piperidin-1-yl)acetic acid] | > 7.00 | > 7.00 | 92
N#Cc1ccc(CCNC(=O)[C@@H]2CCCN2c2cc(N3CCC(CCNC(=O)N[C@@H](CCCNC(=N)N)C(=O)O)CC3)nc(C(F)(F)F)n2)cc1 [Compound 83, (S)-2-(3-(2-(1-(6-((S)-2-((4-cyanophenethyl)carbamoyl)pyrrolidin-1-yl)-2-(trifluoromethyl)pyrimidin-4-yl)piperidin-4-yl)ethyl)ureido)-5-guanidinopentanoic acid] | > 7.00 | > 7.00 | 2.5
O=C(CCCC1CCN(c2cc(N3CCC[C@H]3C(=O)NCCc3ccc(C(F)(F)F)cc3)nc(C(F)(F)F)n2)CC1)NCCNS(=O)(=O)c1ccc(C(=O)O)cc1 [Compound 94, (S)-4-(N-(2-(4-(1-(2-(trifluoromethyl)-6-(2-((4-(trifluoromethyl)phenethyl)-carbamoyl)-pyrrolidin-1-yl)pyrimidin-4-yl)piperidin-4-yl)butanamido)ethyl)-sulfamoyl)benzoic acid] | > 7.00 | > 7.00 | 26
O=C(CCCC1CCN(c2cc(N3CCC[C@H]3C(=O)NCCc3ccc(C(F)(F)F)cc3)nc(C(F)(F)F)n2)CC1)NCCNc1cc(N(CCO)CCO)ncn1 [Compound 111] | > 7.00 | > 7.00 | 5.3
